Test results taken from US20240091324A1, “GASTROINTESTINAL HEALTH COMPOSITION” (priority 2019, published 2024).

Key:
Format in all cases: cell-based, human
[1] = system: IL-8 release from Caco-2 monolayers; assay: Release of IL-8 from polarised Caco-2 monolayers stimulated with LPS, TNF-α, IFN-β; conditions: for % increase in anti-inflammatory activity compared to equivalent formulation without bromelain (difference of means): plus 80 ug/ml bromelain
Experimental: Inflammatory model of Caco-2 polarised monolayer stimulated with inflammatory mediators LPS, TNF-α, IFN-β: Polarised Caco-2 models were generated as previously described. When cell cultures reached a baseline TER of >1000/cm^2, the monolayers were stimulated by addition of 0.6 ml containing 50 ng/ml IFN-β, 10 μg/ml LPS and 5 ng/ml TNFα to the basolateral compartment. Immediately after the addition of the stimulation cocktail 0.25 ml of GaRP±0-80 μg/ml bromelain was applied to the apical compartment. After the 24 h incubation culture supernatants from the apical side were collected for quantitation of IL-8.
The human colorectal adenocarcinoma cell-line C2BBe1 was grown and maintained in Dulbecco's modified Eagle's medium (DMEM) supplemented with 10% v/v fetal bovine serum (FBS), 4 mM L-glutamine, 100 U/ml penicillin and […] streptomycin. All experiments were conducted on C2BBe1 cells within 12 passages after thawing.
In an experiment to evaluate the anti-inflammatory effect of bromelain or various GaRP formulations, 0.25 ml of test samples was applied to the apical side for 24 h, at the same time 0.6 ml of a cocktail containing 50 ng/ml IFN+10 ug/ml LPS+5 ng/ml TNF was added to the basolateral side in this model. After the 24 h incubation culture supernatants from the apical side were collected and IL-8 quantitated by ELISA.

Enterocyte = assay: Observed therapeutic effective dose determined in the in vitro experiments (Table 4)
Experimental: (§1) The observed therapeutic effective dose was determined in the in vitro experiments described herein.
(§2) Table 4 summarises the observed therapeutic effective dose for each GaRP formulation component.

Macrophage = assay: as above
Experimental: as §1, §2

[2] = formulation or component plus 80 ug/ml bromelain, 24 h
[3] = without bromelain, test sample apical 24 h, IFN+LPS+TNF cocktail basolateral

C[C@@H](O)[C@H](N)C(=O)O [L-threonine]
% inhibition of the release of IL-8 Median ± SEM [1, 2]: 73 ± 11% | % increase in anti-inflammatory activity compared to equivalent formulation without bromelain (difference of means) [1]: 55% | % inhibition of the release of IL-8 Median ± SEM [1, 3]: 18 ± 1% | observed therapeutic effective dose, Target cell Enterocyte (pg/cell) (Enterocyte): 15 pg/cell | observed therapeutic effective dose, Target cell Macrophage (pg/cell) (Macrophage): 300 pg/cell

CSCC[C@H](N)C(=O)O [L-methionine]
% inhibition of the release of IL-8 Median ± SEM [1, 2]: 73 ± 10% | % increase in anti-inflammatory activity compared to equivalent formulation without bromelain (difference of means) [1]: 53% | % inhibition of the release of IL-8 Median ± SEM [1, 3]: 20 ± 5%
